According to article PMC9413440, “An Iterative Approach Guides Discovery of the FabI Inhibitor Fabimycin, a Late-Stage Antibiotic Candidate with In Vivo Efficacy against Drug-Resistant Gram-Negative Infections” (ACS Central Science, 2022):
Read-outs that look alike come from different tables or passages of the source.

How the values were obtained:
Streptococcus pneumoniae = experiment: MIC, Streptococcus pneumoniae strains; format: cell-based
Method: II. Materials and Methods for Biological Experiments
S. aureus ATCC 29213 and E. coli MG1655 were obtained from the American Type Culture Collection (ATCC). E. coli BW25113 and E. coli JW5503 were obtained from the Keio Collection. AR-bank strains were obtained from the Centers for Disease Control and Prevention and FDA Antibiotic Resistance Isolate Bank.
Antimicrobial susceptibility tests
Susceptibility testing was performed in biological triplicate, unless noted otherwise, using the micro-dilution broth method as outlined by the Clinical and Laboratory Standards Institute. Bacteria were cultured with cation-adjusted Mueller Hinton broth (Sigma Aldrich, catalogue number: 90922). […]
NH3: m/z 391.2 → 171.0. Fabimycin: m/z 405.3 → 145.3. Power analysis was not used to determine the number of replicates. Error bars represent the standard error of the mean of three biological replicates. All compounds evaluated in biological assays were ≥95% pure.

E. coli MG1655 = experiment: Serial passaging; format: cell-based, Escherichia coli; details: E. coli MG1655, subinhibitory concentration, 21 days
Method: Serial passaging procedure was done as reported in literature.5 Briefly, E. coli MG1655 cells were grown in 0.6 mL of MH media containing fabimycin and ciprofloxacin (control) at different concentrations. Cells were added to the respective compounds at 0.25X, 0.5X, 1X, 2X, and 4X to start. At 22-24 hours the cultures were checked for growth. […]
compound at varying concentrations based off of the MIC. This serial passaging was repeated for 21 days. […]
All cells were cultured […]
at 37 °C under a 5% CO2 environment. Cell lines were authenticated by a commercial vendor and inspected visually in house. Cell lines were not tested for Mycoplasma contamination. The media was prepared by the University of Illinois School of Chemical Sciences Cell Media Facility.
H. sapiens HFF-1, A549, and HepG2 cells were seeded (3,000-6,000 cells/well) in a 96-well plate (Greiner Bio-One;

[1] = Pharmacokinetic assessment in neutropenic A. baumannii-infected mice; format: in vivo, mouse; details: for Cmax / AUC(0-t) / clearance / half-life: single dose; for TimeHigh: time above the MIC of the infective strain (2 µg/mL)
From the text: Pharmacokinetic assessment
The protocol to assess fabimycin’s pharmacokinetic properties in A. baumanii-infected mice (strain: AR-0088) was approved by the IACUC at Pharmacology Discovery Services, Taiwan, Ltd. (protocol mumber: PK001-09212018). In this study, neutropenic female BALB/c mice 7-8 weeks in age from BioLASCO Taiwan (AAALAC-certified Charles River Licensee) weighing 18 ± 2 grams were used.10 All animals were specific pathogen free. Mice were rendered neutropenic via cyclophosphamide (CP) administration by two intraperitoneal (IP) injections following a standard method for mouse thigh infection models.11 The first CP dose, 150 mg/kg, was administered at four days before infection (Day –4); and the second, 100 mg/kg, at 24 h before infection (Day –1), prior to infection on Day 0.
To inoculate the mice, A. baumannii cultures were first generated by seeding brain heart infusion (BHI, 20 mL) with an aliquot (0.2 mL) of a single-used glycerol stock of A. baumannii AR-0088 stored at -80 °C and incubating at 35-37 °C with shaking (250 rpm) for 6 hours. An aliquot of this culture (1.0 mL) was used to seed fresh BHI media (99 mL) and this shaken (250 rpm) at 35-37 °C for 16 hours. Bacterial cells were harvested by centrifuging 20 mL of this outgrowth culture (3,500 x g) for 15 minutes and re-suspending in fresh cold phosphate buffered saline (PBS, 10 mL). The optical density at 620 nm was measured and used to guide dilutions. PBS suspensions were stored on ice for no more than 1 hour prior to animal inoculation. The bacterial count in the challenge organism suspension was enumerated by dilution plating on to nutrient gar plates followed by 20-24 hour incubation. The target inoculum is 1.0 * 10^5 CFU/mouse for the strain […]
Fabimycin was IV administered once followed by terminal blood sampling at 8 time points with cardiac puncture (5, 15, 30, 45, 60, 120, 240, and 480 minutes). Terminal blood collection from cardiac puncture was conducted under CO2 euthanasia. Blood, 0.3-0.4 mL, was drawn into tubes coated with K2EDTA, mixed gently and kept on ice and centrifuged at 12,000 × g for 5 minutes at 4°C within 1 hour of collection. The plasma was harvested and stored at -80 °C until further processing. Thigh tissues were aseptically harvested from the left thigh of the infected animals, weighed, and homogenized in sterile PBS (3 mL, pH 7.4) with a Polytron homogenizer. The thigh homogenate was collected and stored at -80 °C until further processing.
For LC-MS/MS sample processing a 20 µL aliquot of each plasma and thigh sample was transferred to 96 well plate. A 300 µL aliquot of 0.01 ng/µL internal standard (IS), oxybutynin, in MeOH/FA=95/5 was added to each tube except for the double blank and carryover controls. A 300 μL aliquot of MeOH/FA=95/5, without oxybutynin, was added to the double blank and carryover assay wells. The equilibrated mixture was vortexed for 1 min and then centrifuged at 4,000 rpm for 5 min at 20 °C to precipitate protein. After centrifugation, 50 µL of the supernatant was transferred to a new well of the 96 well plate and 500 μL H2O/FA=100/0.2 added for LC-MS/MS analysis. Plasma and thigh samples from treatment groups and the calibration curve samples were processed on the same test occasion using the same procedure.
The calibration curve samples were generated by spiking aliquots of drug-free plasma or thigh homogenates with the test article dilution. The quality control (QC) samples, QH (high), QM (medium) and QL (low) were each assayed in duplicate. The PK parameters for the IV doses were obtained from the non-compartmental analysis (NCA) of the plasma and thigh homogenate data using WinNonlin (Phoenix® Build 8.3.1.5014).
LC-MS/MS runs were conducted with a SCIEX Triple Quad™ 5500+ mass sp ectrometer. Method development was conducted to determine appropriate conditions for LC-MS/MS analysis of fabimycin. A titration of a stock solution was performed to correlate peak areas and the corresponding concentration. […]

[2] = female, BALB/c, mouse, plasma, 75 mg/kg, IV
[3] = female, BALB/c, mouse, plasma, 100 mg/kg, IV
[4] = female, BALB/c, mouse, thigh, 75 mg/kg, IV
[5] = female, BALB/c, mouse, thigh, 100 mg/kg, IV

With `Cc1c(CN(C)C(=O)/C=C/c2cnc3c(c2)CC[C@H](N)C(=O)N3)oc2ccccc12` [fabimycin] the MIC (Streptococcus pneumoniae; S. pneumoniae 202-5872) was >128 µg/mL, the MIC (Streptococcus pneumoniae; S. pneumoniae 202-6154) was >128 µg/mL and the MIC (Streptococcus pneumoniae; S. pneumoniae 202-6515) was >128 µg/mL. The MIC (Streptococcus pneumoniae; S. pneumoniae 202-7382) was >128 µg/mL, the MIC (Streptococcus pneumoniae; S. pneumoniae CO314937) was >128 µg/mL and the MIC (Streptococcus pneumoniae; S. pneumoniae MD77773) was >128 µg/mL. For the same molecule, the MIC (Streptococcus pneumoniae; S. pneumoniae MD77841) was >128 µg/mL, the MIC (Streptococcus pneumoniae; S. pneumoniae NYO5984) was >128 µg/mL and the MIC (Streptococcus pneumoniae; Streptococcus pneumoniae, ATCC49619, S. pneumoniae ATCC 49619, read-out: MIC) was > 128 µg/mL. The MIC (Streptococcus pneumoniae; Streptococcus pneumoniae, S. pneumoniae NYO5986, read-out: MIC) was > 128 µg/mL, the “increase in the MIC after serial passaging” value (E. coli MG1655) was 8 fold and the Cmax ([1]; female, BALB/c, mouse, plasma, iv, 75 mg/kg, plasma, 75 mg/kg, read-out: Cmax) was 34600 ng/mL. The Cmax ([1]; female, BALB/c, mouse, plasma, iv, 100 mg/kg, plasma, 100 mg/kg, read-out: Cmax) was 47300 ng/mL, the Cmax ([1]; female, BALB/c, mouse, thigh, iv, 75 mg/kg, thigh, 75 mg/kg, read-out: Cmax) was 33000 ng/g and the Cmax ([1]; female, BALB/c, mouse, thigh, iv, 100 mg/kg, thigh, 100 mg/kg, read-out: Cmax) was 60200 ng/g. For the same molecule, the AUC(0-t) [1, 2] was 45400 ng·h/mL, the clearance [1, 2] was 26.9 mL/min/kg and the half-life [1, 2] was 1.4 h. The AUC(0-t) [1, 3] was 69800 ng·h/mL, the clearance [1, 3] was 23.5 mL/min/kg and the half-life [1, 3] was 1.4 h. The AUC(0-t) [1, 4] was 65200 ng·h/mL, the clearance [1, 4] was 18.9 mL/min/kg and the half-life [1, 4] was 1.39 h. The AUC(0-t) [1, 5] was 112000 ng·h/mL, the clearance [1, 5] was 14.7 mL/min/kg and the half-life [1, 5] was 1.24 h. The TimeHigh ([1]; plasma, 75 mg/kg, IV) was 5.70 h, the Cmax ([1]; plasma, 100 mg/kg, IV) was 47000 ng/mL and the TimeHigh ([1]; plasma, 100 mg/kg, IV) was 6.67 h. For the same molecule, the TimeHigh ([1]; thigh, 75 mg/kg, IV) was “over 6 h”, the TimeHigh ([1]; thigh, 75 mg/kg, IV, listed as Fabimycin) was 6.22 h and the TimeHigh ([1]; thigh, 100 mg/kg, IV) was 7.19 h.
